The term IC50 denotes the point on the concentration scale where inhibition reaches its midpoint.

From US20260102383A1, “LPAR1 Inhibitors” (AbbVie Inc., priority 2024, published 2026) come the findings set out here.

For the test, the target named is T1, human LPAR1 (Homo sapiens, UniProt Q92633).
T1 construct: host or cells: TangoEDG2-bla U2OS cells
Briefly: Arrestin assay (Arrestin Reporter EDG2-bla U2OS), inhibition of LPA-stimulated signal. Format: cell-based. The following applies: TangoEDG2-bla U2OS cells expressing human LPAR1; 0.25 μM LPA; read-out: Arrestin Reporter EDG2-bla U2OS Human Merged IC50. The method in brief: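 TangoEDG2-bla U2OS cells (1×10^4/well, plated 18-20 h) were preincubated 1 h at 37 °C with compound (12-point, 3-fold, 10 μM to 0.00006 μM), then stimulated 3 h with 0.25 μM LPA final. LiveBLAzer FRET B/G 460/530 nm emission ratio gave % inhibition; IC50 from 4-parameter variable-slope fit.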

T1 sequence (Q92633 whole entry): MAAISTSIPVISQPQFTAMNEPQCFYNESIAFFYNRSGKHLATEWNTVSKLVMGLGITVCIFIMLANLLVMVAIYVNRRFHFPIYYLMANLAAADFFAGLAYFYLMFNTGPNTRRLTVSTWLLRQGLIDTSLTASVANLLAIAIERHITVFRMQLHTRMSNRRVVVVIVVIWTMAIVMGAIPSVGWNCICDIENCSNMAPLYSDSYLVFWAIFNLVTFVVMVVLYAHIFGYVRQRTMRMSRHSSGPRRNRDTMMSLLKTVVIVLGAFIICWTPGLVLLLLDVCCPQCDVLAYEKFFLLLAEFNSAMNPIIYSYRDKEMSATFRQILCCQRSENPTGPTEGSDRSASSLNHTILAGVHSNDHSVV

Turning to `COC(=O)CC(=O)N1CCC(CN2CCC(C(=O)Nc3ccc(Cl)cc3OC(F)F)(n3nccc3C(C)C)CC2)(C(=O)O)CC1` [Compound 9, 4-[[4-[[4-chloro-2-(difluoromethoxy)phenyl]carbamoyl]-4-(5-isopropylpyrazol-1-yl)-1-piperidyl]methyl]-1-(3-methoxy-3-oxo-propanoyl)piperidine-4-carboxylic acid], the IC50 amounted to 0.128 µM.

Regarding `CC1(C)COc2cnn(C3(C(=O)Nc4ccc(Cl)cc4OC(F)F)CCN([C@H]4C[C@@H](C(=O)O)C4)CC3)c21` [Compound 103, (1s,3s)-3-[4-[[4-chloro-2-(difluoromethoxy)phenyl]carbamoyl]-4-(6,6-dimethyl-5H-furo[3,2-c]pyrazol-1-yl)-1-piperidyl]cyclobutanecarboxylic acid], the IC50 is 0.164 µM.

With `CC(C)c1ccnn1C1(C(=O)Nc2ccc(Cl)cc2OC(F)F)CCN(C[C@@]2(C(=O)O)CCOC2)CC1` [Compound 24, (3S)-3-[[4-[[4-chloro-2-(difluoromethoxy)phenyl]carbamoyl]-4-(5-isopropylpyrazol-1-yl)-1-piperidyl]methyl] tetrabydrofuran-3-carboxylic acid], the IC50 stood at 0.0247 µM.

In the case of `CC(C)c1ccnn1C1(C(=O)Nc2ccc(Cl)cc2OC(F)F)CCN(CC(COCC(F)(F)F)C(=O)O)CC1` (centres unmarked) [Compound 232, 2-[[4-[[4-chloro-2-(difluoromethoxy)phenyl]carbamoyl]-4-(5-isopropylpyrazol-1-yl)-1-piperidyl]methyl]-3-(2.2,2-trifluoroethoxy)propanoic acid], the IC50 amounted to 0.00837 µM.

On to `CC(C)c1ccnn1C1(C(=O)Nc2ccc(Cl)cc2OC(F)F)CCN(CC(CC#N)C(=O)O)CC1` (centres unmarked) [Compound 146, 2-[[4-[[4-chloro-2-(difluoromethoxy)phenyl]carbamoyl]-4-(5-isopropylpyrazol-1-yl)-1-piperidyl]methyl]-3-cyano-propanoic acid], for which the IC50 amounted to 0.0156 µM.

Turning to `CCC(=O)N1CC[C@@](CN2CCC(C(=O)Nc3ccc(Cl)cc3OC(F)F)(n3nccc3C(C)C)CC2)(C(=O)O)C1` [Compound 100, (3S)-3-[[4-[[4-chloro-2-(difluoromethoxy)phenyl]carbamoyl]-4-(5-isopropylpyrazol-1-yl)-1-piperidyl]methyl]-1-propanoyl-pyrrolidine-3-carboxylic acid], the IC50 was 0.0785 µM.

With `CCOC(=O)N1CC[C@](CN2CCC(C(=O)Nc3ccc(Cl)cc3OC(F)F)(n3nccc3C(C)C)CC2)(C(=O)O)C1` [Compound 56, (3R)-3-[[4-[[4-chloro-2-(difluoromethoxy)phenyl]carbamoyl]-4-(5-isopropylpyrazol-1-yl)-1-piperidyl]methyl]-1-ethoxycarbonyl-pyrrolidine-3-carboxylic acid], the IC50 was determined as 0.00673 µM.

Turning to `COC1(C(=O)O)CC(N2CCC(C(=O)Nc3ccc(Cl)cc3OC(F)F)(n3nccc3C(C)C)CC2)C1` (centres unmarked) [Compound 181, 3-[4-[[4-chloro-2-(difluoromethoxy)phenyl]carbamoyl]-4-(5-isopropylpyrazol-1-yl)-1-piperidyl]-1-methoxy-cyclobutanecarboxylic acid], the IC50 is 0.0877 µM.

As for `CC1(C)CCc2cnn(C3(C(=O)Nc4ccc(Cl)cc4OC(F)F)CCN(CC4(C(=O)O)CCOCC4)CC3)c21` [Compound 35, 4-[[4-[[4-chloro-2-(difluoromethoxy)phenyl]carbamoyl]-4-(6,6-dimethyl-4,5-dihydrocyclopenta[c]pyrazol-1-yl)-1-piperidyl]methyl]tetrahydropyran-4-carboxylic acid], the IC50 was 0.0436 µM.

In the case of `CC(C)c1ccnn1C1(C(=O)Nc2ccc(Cl)cc2OC(F)F)CCN(C[C@@H](C(=O)O)[C@H]2CCOC2)CC1` (single isomer, unassigned) [Compound 149], the 50% inhibitory concentration (IC50) is 0.0345 µM.

In the case of `CC(C)C(=O)N1CCC(CN2CCC(C(=O)Nc3ccc(Cl)cc3OC(F)F)(n3nccc3C(C)C)CC2)(C(=O)O)CC1` [Compound 75, 4-[[4-[[4-chloro-2-(difluoromethoxy)phenyl]carbamoyl]-4-(5-isopropylpyrazol-1-yl)-1-piperidyl]methyl]-1-(2-methylpropanoyl)piperidine-4-carboxylic acid], the IC50 is 0.0327 µM.

For `CC(C)c1ccnn1C1(C(=O)Nc2ccc(Cl)cc2OC(F)F)CCN(C[C@@](C)(O)C(=O)O)CC1` [Compound 235, (2R)-3-[4-[[4-chloro-2-(difluoromethoxy)phenyl]carbamoyl]-4-(5-isopropylpyrazol-1-yl)-1-piperidyl]-2-hydroxy-2-methyl-propanoic acid], the concentration for half-maximal inhibition (IC50) worked out at 0.0209 µM.

As to `CC(C)c1ccnn1C1(C(=O)Nc2ccc(Cl)cc2OC(F)F)CCN(CC2(C(=O)O)CCN(C(=O)O[C@@H]3CCOC3)CC2)CC1` [Compound 110, 4-[[4-[[4-chloro-2-(difluoromethoxy)phenyl]carbamoyl]-4-(5-isopropylpyrazol-1-yl)-1-piperidyl]methyl]-1-[(3R)-tetrahydrofuran-3-yl]oxycarbonyl-piperidine-4-carboxylic acid], the IC50 amounted to 0.0755 µM.

On to `COC1CC(C(CN2CCC(C(=O)Nc3ccc(Cl)cc3OC(F)F)(n3nccc3C(C)C)CC2)C(=O)O)C1` (centres unmarked) [Compound 200, 3-[4-[[4-chloro-2-(difluoromethoxy)phenyl]carbamoyl]-4-(5-isopropylpyrazol-1-yl)-1-piperidyl]-2-(3-methoxycyclobutyl) propanoic acid], for which the IC50 was 0.0377 µM.

For the compound `CC(C)c1ccnn1C1(C(=O)Nc2ccc(Cl)cc2OC(F)F)CCN(CC2(C(=O)O)CCN(C(=O)C34CC(C#N)(C3)C4)CC2)CC1` [Compound 80, 4-[[4-[[4-chloro-2-(difluoromethoxy)phenyl]carbamoyl]-4-(5-isopropylpyrazol-1-yl)-1-piperidyl]methyl]-1-(3-cyanobicyclo[1.1.1]pentane-1-carbonyl)piperidine-4-carboxylic acid], the IC50 came to 0.129 µM.

`CC(C)c1ccnn1C1(C(=O)Nc2ccc(Cl)cc2OC(F)F)CCN(C[C@@H](CC#N)C(=O)O)CC1` [Compound 168, (2R)-2-[[4-[[4-chloro-2-(difluoromethoxy)phenyl]carbamoyl]-4-(5-isopropylpyrazol-1-yl)-1-piperidyl]methyl]-3-cyano-propanoic acid]: the IC50 was 0.0288 µM.

Regarding `CC(C)c1ccnn1C1(C(=O)Nc2ccc(Cl)cc2OC(F)F)CCN(C[C@@H](C(=O)O)N2CCOC(C)(C)C2)CC1` [Compound 165, (2S)-3-[4-[[4-chloro-2-(difluoromethoxy)phenyl]carbamoyl]-4-(5-isopropylpyrazol-1-yl)-1-piperidyl]-2-(2,2-dimethylmorpholin-4-yl)propanoic acid], the IC50 was found to be 0.137 µM.

Turning to `CC(C)c1ccnn1C1(C(=O)Nc2ccc(Cl)cc2OC(F)F)CCN(C[C@@H](C(=O)O)[C@@H]2CCOC2)CC1` (single isomer, unassigned) [Compound 151], the IC50 is 0.075 µM.

For the compound `CC(C)c1ccnn1C1(C(=O)Nc2ccc(Cl)cc2OC(F)F)CCN(C[C@@H](C(=O)O)c2cnn(C)c2)CC1` [Compound 155, (2S)-3-[4-[[4-chloro-2-(difluoromethoxy)phenyl]carbamoyl]-4-(5-isopropylpyrazol-1-yl)-1-piperidyl]-2-(1-methylpyrazol-4-yl)propanoic acid], the IC50 was 0.125 µM.

Regarding `CO[C@H]1C[C@H]([C@@H](CN2CCC(C(=O)Nc3ccc(Cl)cc3OC(F)F)(n3nccc3C(C)C)CC2)C(=O)O)C1` [Compound 230, (2S)-3-[4-[[4-chloro-2-(difluoromethoxy)phenyl]carbamoyl]-4-(5-isopropylpyrazol-1-yl)-1-piperidyl]-2-((1r,3S)-3-methoxycyclobutyl) propanoic acid], the IC50 was determined as 0.0255 µM.

`CC(C)c1ccnn1C1(C(=O)Nc2ccc(Cl)cc2OC(F)F)CCN(C[C@@H](CN2CCOCC2)C(=O)O)CC1` [Compound 238, (2S)-2-[[4-[[4-chloro-2-(difluoromethoxy)phenyl]carbamoyl]-4-(5-isopropylpyrazol-1-yl)-1-piperidyl]methyl]-3-morpholino-propanoic acic]: the IC50 stood at 0.126 µM.

In the case of `CC(C)c1ccnn1C1(C(=O)Nc2ccc(Cl)cc2OC(F)F)CCN(C[C@H](C(=O)O)C2COCCOC2)CC1` [Compound 216, (2R)-3-[4-[[4-chloro-2-(difluoromethoxy)phenyl]carbamoyl]-4-(5-isopropylpyrazol-1-yl)-1-piperidyl]-2-(1,4-dioxepan-6-yl)propanoic acid], the IC50 turned out to be 0.0284 µM.

As for `COCC(OC)C(=O)N1CCC(CN2CCC(C(=O)Nc3ccc(Cl)cc3OC(F)F)(n3nccc3C(C)C)CC2)(C(=O)O)CC1` (centres unmarked) [Compound 60, 4-[[4-[[4-chloro-2-(difluoromethoxy)phenyl]carbamoyl]-4-(5-isopropylpyrazol-1-yl)-1-piperidyl]methyl]-1-(2,3-dimethoxypropanoyl) piperidine-4-carboxylic acid], the IC50 was 0.0912 µM.

For the compound `CC(C)c1ccnn1C1(C(=O)Nc2ccc(Cl)cc2OC(F)F)CCN(C[C@]2(C(=O)O)CCOC(C)(C)C2)CC1` [Compound 173, (4S)-4-[[4-[[4-chloro-2-(difluoromethoxy)phenyl]carbamoyl]-4-(5-isopropylpyrazol-1-yl)-1-piperidyl]methyl]-2,2-dimethyl-tetrahydropyran-4-carboxylic acid], the half-inhibitory concentration (IC50) came out at 0.031 µM.

In the case of `CC(C)c1ccnn1C1(C(=O)Nc2ccc(Cl)cc2OC(F)F)CCN([C@@H]2CO[C@@H](C(=O)O)C2)CC1` [Compound 138, (2R,4S)-4-[4-[[4-chloro-2-(difluoromethoxy)phenyl]carbamoyl]-4-(5-isopropylpyrazol-1-yl)-1-piperidyl]tetrahydrofuran-2-carboxylic acid], the IC50 came to 0.072 µM.

On to `CC(C)c1ccnn1C1(C(=O)Nc2ccc(Cl)cc2OC(F)F)CCN(C[C@H](C(=O)O)c2cccnc2)CC1` [Compound 25, (2R)-3-[4-[[4-chloro-2-(difluoromethoxy)phenyl]carbamoyl]-4-(5-isopropylpyrazol-1-yl)-1-piperidyl]-2-(3-pyridyl)propanoic acid], for which the IC50 amounted to 0.028 µM.
